Measurements from patent publication US20260273072A1, “NOVEL PLK1 DEGRADATION INDUCING COMPOUND” (UPPTHERA, INC., priority 2023, published 2026).

Experiments:
Assay type in all cases: cell-based
NCI-H69 cell line = assay: Cell viability assay for NCI-H69 cell line (EZ-Cytox); settings: Homo sapiens, NCI-H69, 120 h; H69 cells, 5 days, 3000 nM to 0.46 nM
How it was run: (§1)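 IC50 values are binned (A: <30 nM, B: <50 nM, C: <100 nM, D: <200 nM, E: <400 nM) from EZ-Cytox read-outs. Cells were exposed to compound for 5 days, then shaken 3 min and absorbance taken at […].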

PLK1 = biological target: T1, PLK1 (Homo sapiens, UniProt P53350); assay: Luciferase assay for PLK1 in HeLa LgBit (Plk1-HiBit KI) cell line; settings: 300 nM compound, luminescence after 9 hours
T1 construct: endogenous in cells; host or cells: HeLa LgBit (Plk1-HiBit KI): HeLa stably expressing LgBit, with a CRISPR/Cas9 knock-in of HiBit at the endogenous PLK1 locus
T1 sequence (P53350 whole entry): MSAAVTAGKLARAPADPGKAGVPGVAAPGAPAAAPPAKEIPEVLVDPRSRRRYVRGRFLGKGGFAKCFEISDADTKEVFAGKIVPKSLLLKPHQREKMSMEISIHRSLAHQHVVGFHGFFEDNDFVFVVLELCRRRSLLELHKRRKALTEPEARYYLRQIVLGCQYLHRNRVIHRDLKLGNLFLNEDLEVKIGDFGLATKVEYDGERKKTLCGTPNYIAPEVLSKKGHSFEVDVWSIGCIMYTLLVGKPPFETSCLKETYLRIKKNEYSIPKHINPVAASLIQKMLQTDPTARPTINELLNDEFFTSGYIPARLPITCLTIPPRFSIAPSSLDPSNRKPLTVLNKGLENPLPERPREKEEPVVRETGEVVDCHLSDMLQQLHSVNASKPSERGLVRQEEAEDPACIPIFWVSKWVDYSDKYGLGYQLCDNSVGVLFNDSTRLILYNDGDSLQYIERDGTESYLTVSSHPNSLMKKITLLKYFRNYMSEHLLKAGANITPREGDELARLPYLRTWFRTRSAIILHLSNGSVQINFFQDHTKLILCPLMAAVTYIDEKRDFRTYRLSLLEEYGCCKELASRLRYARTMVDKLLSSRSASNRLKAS
How it was run: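 Compounds (300 nM) were added with Endurazine to thymidine-synchronised cells (2 mM, 24 h block, then release and 18 h culture), and luminescence at 470-480 nm was followed live. Cells: HeLa stably expressing LgBit, HiBit knocked into native PLK1 C-terminus. Value: luminescence ratio versus DMSO control.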

MRC-5 cell line = assay: Cell viability assay for MRC-5 cell line (EZ-Cytox); settings: Homo sapiens, MRC5, 120 h; MRC-5 normal cell line, 5 days, 10000 nM to 1.52 nM; read-out: Activity: IC50 value, cell viability, MRC-5 cell line (Exemplary Compounds)
Description: 4. Cell Viability Assay for MRC-5 Cell Line
(1) Culture of MRC-5 Cell Line
The MRC-5 cell line was purchased from KCLB. Passage of cultured cells was maintained within P15.
(2) Treatment of Compounds of the Present Invention
Then, it was cultured in 37° C. CO2 incubator (Thermo Fisher Scientific) for 5 days.
(3) Cytotoxicity Experiment
CO2 incubator for 4 hours.

NCI-H526 cell line = assay: Cell viability assay for NCI-H526 cell line (EZ-Cytox); settings: Homo sapiens, NCI-H526, 120 h; H526 cells, 5 days, 3000 nM to 0.46 nM
How it was run: as §1

| SMILES | IC50 (NCI-H69 cell line) [nM] | Activity: ratio of the luminescence value of compound treatment group to DMSO treatment group (PLK1) | IC50 (MRC-5 cell line) [µM] | IC50 (NCI-H526 cell line) [nM] |
| --- | --- | --- | --- | --- |
| COc1cc(C(=O)NC2CCC(N(C)CC3CCN(c4ccc(C5CCC(=O)NC5=O)nc4)CC3)CC2)ccc1Nc1ncc2c(n1)N(C1CCCC1)CC(F)(F)C(=O)N2C (stereo not shown) [Compound 10, 4-((9-cyclopentyl-7,7-difluoro-5-methyl-6-oxo-6,7,8,9-tetrahydro-5H-pyrimido[4,5-b][1,4]diazepin-2-yl)amino)-N-((1r,4r)-4-(((1-(6-(2,6-dioxopiperidin-3-yl)pyridin-3-yl)piperidin-4-yl)methyl)(methyl)amino)cyclohexyl)-3-methoxybenzamide] | < 30 | +++ (+++: <0.3) | > 10 | < 30 |
| CCN1CC(F)(F)C(=O)N(C)c2cnc(Nc3ccc(C(=O)NN4CCC(CCN5CCN(c6ccc(NC7CCC(=O)NC7=O)cc6F)CC5)CC4)cc3OC)nc21 (stereo not shown) [Compound 28, N(4-(2-(4-(4-((2,6-dioxopiperidin-3-yl)amino)-2-fluorophenyl)piperazin-1-yl)ethyl)piperidin-1-yl)-4-((9-ethyl-7,7-difluoro-5-methyl-6-oxo-6,7,8,9-tetrahydro-5H-pyrimido[4,5-b][1,4]diazepin-2-yl)amino)-3-methoxybenzamide] | < 30 | +++ (+++: <0.3) | > 10 | < 30 |
| COc1cc(C(=O)NC2CC3(CCN(CC4CCN(c5cc(OC)c(NC6CCC(=O)NC6=O)cc5F)CC4)CC3)C2)ccc1Nc1ncc2c(n1)N(C1CCCC1)CC(F)(F)C(=O)N2C (stereo not shown) [Compound 51, 4-((9-cyclopentyl-7,7-difluoro-5-methyl-6-oxo-6,7,8,9-tetrahydro-5H-pyrimido[4,5-b][1,4]diazepin-2-yl)amino)-N-(7-((1-(4-((2,6-dioxopiperidin-3-yl)amino)-2-fluoro-5-methoxyphenyl)piperidin-4-yl)methyl)-7-azaspiro[3.5]nonan-2-yl)-3-methoxybenzamide] | < 30 | +++ (+++: <0.3) | > 10 | < 30 |
| COc1cc(N2CCN(CCC3CCN(NC(=O)c4ccc(Nc5ncc6c(n5)N(C5CCCC5)CC(F)(F)C(=O)N6C)c(OC)c4F)CC3)CC2)c(F)cc1NC1CCC(=O)NC1=O (stereo not shown) [Compound 44, 4-((9-cyclopentyl-7,7-difluoro-5-methyl-6-oxo-6,7,8,9-tetrahydro-5H-pyrimido[4,5-b][1,4]diazepin-2-yl)amino)-N-(4-(2-(4-(4-((2,6-dioxopiperidin-3-yl)amino)-2-fluoro-5-methoxyphenyl)piperazin-1-yl)ethyl)piperidin-1-yl)-2-fluoro-3-methoxybenz amide] | < 100 | +++ (+++: <0.3) | > 10 | < 50 |
| COc1cc(C(=O)NN2CCC(CCN3CCN(c4cnc(C5CCC(=O)NC5=O)cc4F)CC3)CC2)ccc1Nc1ncc2c(n1)N(C(C)C)CC(F)(F)C(=O)N2C (stereo not shown) [Compound 21, 4-((7,7-difluoro-9-isopropyl-5-methyl-6-oxo-6,7,8,9-tetrahydro-5H-pyrimido[4,5-b][1,4]diazepin-2-yl)amino)-N-(4-(2-(4-(6-(2,6-dioxopiperidin-3-yl)-4-fluoropyridin-3-yl)piperazin-1-yl)ethyl)piperidin-1-yl)-3-methoxybenzamide] | < 30 | +++ (+++: <0.3) | > 10 | < 30 |
| COc1cc(C(=O)NN2CCC(CCN3CCN(c4cc(OC)c(NC5CCC(=O)NC5=O)cc4F)CC3)CC2)ccc1Nc1ncc2c(n1)N(C(C)C)CC(F)(F)C(=O)N2C (stereo not shown) [Compound 39, 4-((7,7-difluoro-9-isopropyl-5-methyl-6-oxo-6,7,8,9-tetrahydro-5H-pyrimido[4,5-b][1,4]diazepin-2-yl)amino)-N-(4-(2-(4-(4-((2,6-dioxopiperidin-3-yl)amino)-2-fluoro-5-methoxyphenyl)piperazin-1-yl)ethyl)piperidin-1-yl)-3-methoxybenzamide] | < 30 | ++ (++: <0.5) | > 10 | < 30 |
| COc1cc(C(=O)N[C@H]2C3CN(CC4CCN(c5ccc(NC6CCC(=O)NC6=O)cc5)CC4)C[C@@H]32)ccc1Nc1ncc2c(n1)N(C(C)C)CC(F)(F)C(=O)N2C (stereo partly drawn) [Compound 22, 4-((7,7-difluoro-9-isopropyl-5-methyl-6-oxo-6,7,8,9-tetrahydro-5H-pyrimido[4,5-b][1,4]diazepin-2-yl)amino)-N-((1R,5S,6s)-3-((1-(4-((2,6-dioxopiperidin-3-yl)amino)phenyl)piperidin-4-yl)methyl)-3-azabicyclo[3.1.0]hexan-6-yl)-3-methoxybenzamide] | < 50 | +++ (+++: <0.3) | > 10 | < 50 |
| COc1cc(C(=O)NC2CCC(N(C)CC3CCN(c4ccc(C5CCC(=O)NC5=O)nc4)CC3)CC2)ccc1Nc1ncc2c(n1)N(C(C)C)CC(F)(F)C(=O)N2C (stereo not shown) [Compound 11, 4-((7,7-difluoro-9-isopropyl-5-methyl-6-oxo-6,7,8,9-tetrahydro-5H-pyrimido[4,5-b][1,4]diazepin-2-yl)amino)-N-((1r,4r)-4-(((1-(6-(2,6-dioxopiperidin-3-yl)pyridin-3-yl)piperidin-4-yl)methyl)(methyl)amino)cyclohexyl)-3-methoxybenzamide] | < 30 | ++ (++: <0.5) | > 10 | < 30 |
| CCN1CC(F)(F)C(=O)N(C)c2cnc(Nc3ccc(C(=O)NN4CCC(CCN5CCN(c6cc(OC)c(NC7CCC(=O)NC7=O)cc6F)CC5)CC4)cc3OC)nc21 (stereo not shown) [Compound 41, N(4-(2-(4-(4-((2,6-dioxopiperidin-3-yl)amino)-2-fluoro-5-methoxyphenyl)piperazin-1-yl)ethyl)piperidin-1-yl)-4-((9-ethyl-7,7-difluoro-5-methyl-6-oxo-6,7,8,9-tetrahydro-5H-pyrimido[4,5-b][1,4]diazepin-2-yl)amino)-3-methoxybenzamide] | < 30 | ++ (++: <0.5) | > 10 | < 30 |
| COc1cc(C(=O)NN2CCC(CCN3CCN(c4cc(F)c(NC5CCC(=O)NC5=O)cc4F)CC3)CC2)ccc1Nc1ncc2c(n1)N(C(C)C)CC(F)(F)C(=O)N2C (stereo not shown) [Compound 58, 4-((7,7-difluoro-9-isopropyl-5-methyl-6-oxo-6,7,8,9-tetrahydro-5H-pyrimido[4,5-b][1,4]diazepin-2-yl)amino)-N-(4-(2-(4-(4-((2,6-dioxopiperidin-3-yl)amino)-2,5-difluorophenyl)piperazin-1-yl)ethyl)piperidin-1-yl)-3-methoxybenzamide] | < 30 | +++ (+++: <0.3) | > 10 | < 30 |
| COc1cc(C(=O)NN2CCC(CCN3CCN(c4ccc(NC5CCC(=O)NC5=O)nc4)CC3)CC2)ccc1Nc1ncc2c(n1)N(C1CCCC1)CC(F)(F)C(=O)N2C (stereo not shown) [Compound 77, 4-((9-cyclopentyl-7,7-difluoro-5-methyl-6-oxo-6,7,8,9-tetrahydro-5H-pyrimido[4,5-b][1,4]diazepin-2-yl)amino)-N-(4-(2-(4-(6-((2,6-dioxopiperidin-3-yl)amino)pyridin-3-yl)piperazin-1-yl)ethyl)piperidin-1-yl)-3-methoxybenzamide] | < 30 | ++ (++: <0.5) | > 10 | < 30 |
| COc1cc(C(=O)N[C@H]2CC[C@H](N(C)CC3CCN(c4cccc(N5CCC(=O)NC5=O)c4)CC3)CC2)ccc1Nc1ncc2c(n1)N(C1CCCC1)CC(F)(F)C(=O)N2C [Compound 8, 4-((9-cyclopentyl-7,7-difluoro-5-methyl-6-oxo-6,7,8,9-tetrahydro-5H-pyrimido[4,5-b][1,4]diazepin-2-yl)amino)-N-((1r,4r)-4-(((1-(3-(2,4-dioxotetrahydropyrimidin-1 (2H)-yl)phenyl)piperidin-4-yl)methyl)(methyl)amino)cyclohexyl)-3-methoxybenzamide] | < 30 | ++ (++: <0.5) | > 10 | < 30 |
| CCN1CC(F)(F)C(=O)N(C)c2cnc(Nc3ccc(C(=O)NC4CCC(N(C)CC5CCN(c6cnc(C7CCC(=O)NC7=O)cc6C)CC5)CC4)cc3OC)nc21 (stereo not shown) [Compound 13, N((1r,4r)-4-(((1-(6-(2,6-dioxopiperidin-3-yl)-4-methylpyridin-3-yl)piperidin-4-yl)methyl)(methyl)amino)cyclohexyl)-4-((9-ethyl-7,7-difluoro-5-methyl-6-oxo-6,7,8,9-tetrahydro-5H-pyrimido[4,5-b][1,4]diazepin-2-yl)amino)-3-methoxybenzamide] | < 30 | +++ (+++: <0.3) | > 10 | < 30 |
